These results are taken from US20150209294A1, “PHARMACEUTICAL COMPOSITION AND PROCESS” (Hoffmann-La Roche Inc., priority 2006, published 2015).

Each structure is given as a SMILES string.

Data set [1] can be described thus: oral bioavailability in monkeys. To be noted: monkey, in vivo.
Data set [2] can be described thus: oral bioavailability in rats. Conditions: rat, in vivo.
The next data set is described as follows: permeability of R 411. To be noted: limited permeability. In kind it is in vitro ADME.
Data set [3] in a line: pH-dependent chemical stability (hydrolysis of ester linkage). In kind it is physicochemical. To be noted: at pH>6.
Data set [4] is described as follows: oral bioavailability in dogs. To be noted: dog, in vivo.

`CCN(CC)CCOC(=O)[C@H](Cc1ccc(NC(=O)c2c(Cl)cccc2Cl)cc1)NC(=O)c1c(C)cccc1Cl.Cl` [R 411, N-(2-chloro-6-methylbenzoyl)-4-[(2,6-dichlorobenzoyl)amino]-L-phenylalanine-2-(diethylamino)ethyl ester hydrochloride]: the bioavailability (usually the share of a dose that reaches the circulation, judged against a reference dose that is usually intravenous) in data set [1] is 6%; in data set [2] it was 20%; in data set [4], 20%. In “permeability of R 411”, the permeability is recorded as 58×10^−6 cm^2/sec. For the same molecule, the stability to hydrolysis entry in data set [3] is listed as “prone to alkaline hydrolysis”.
